Assay results as given in US4345938A, “Herbicidal 2-haloacetanilides” (Monsanto Company, priority 1980, dated 1982).
Read-outs that look alike come from different tables or passages of the source.

Key:
Assay type in all cases: in vivo
[1] = system: Sagittaria trifolia; assay: Field transplant rice test, applied 0 DAT, ST; details: 0 h, read-out: Percent Inhibition, ST; for inhibition at 375 g/ha: 0.375 Kg/Ha; for inhibition at 750 g/ha: 0.75 Kg/Ha; for inhibition at 1500 g/ha: 1.5 Kg/Ha; for inhibition at 3000 g/ha: 3.0 Kg/Ha
Protocol: (§1) The test data in Table III for all compounds was obtained under identical test conditions. The weeds used in the tests herein have the following abbreviations in the tables: Echinochloa crus-galli (EC), Monochloria vaginalis (MV), Cyperus Serotinus (CS), Eleocharis Kuroguwai (EK) and Sagittaria trifolia (ST).
(§2) In further comparative tests, a preferred compound of this invention (Example 1) was tested in the field with prior art Compounds A-D. These tests were conducted under conditions reflecting herbicide application times generally favorable to all herbicides in the test. The timing of application of herbicides to transplant rice is very important, whether, as in some instances, prior to transplanting the rice; in other instances, at the time of transplanting or else after transplanting. Application times are conventionally referred to as "days before transplant" (DBT) or "days after transplant" ("DAT"). The field test data in Table IV was obtained from a test in which the herbicides were applied at the time of transplant, i.e., "0 DAT", with observations being made weekly up to six weeks after transplant ("WAT") beginning at two weeks after transplant; for illustrative and representative purposes, only the early, middle and late period observations, i.e., 2 WAT, 4 WAT and 6 WAT, are shown in Table IV. The data in Table IV is for rates of application common to all herbicides in the test, i.e., from 3.0 kg/ha (2.67 lb/A) down to 0.375 kg/ha (0.34 lb/A). All herbicides were applied at their actual or expected use rates, i.e., as granules containing 2.5% by weight herbicide for the compound of Example 1, Compounds B, C and D and 5.0% by weight for Compound A.

[2] = system: Rice; assay: Field transplant rice test, applied 0 DAT, rice injury; details: for inhibition at 375 g/ha / inhibition at 750 g/ha / inhibition at 1500 g/ha / inhibition at 3000 g/ha: Oryza sativa, 0 h, read-out: Percent Inhibition, Rice; for inhibition at 375 g/ha: 0.375 Kg/Ha; for inhibition at 750 g/ha: 0.75 Kg/Ha; for inhibition at 1500 g/ha: 1.5 Kg/Ha; for inhibition at 3000 g/ha: 3.0 Kg/Ha
Protocol: as §2

[3] = system: Eleocharis kuroguwai; assay: Greenhouse transplant rice test, EK; details: about 3 WAT, read-out: Percent Inhibition, EK
Text: The test procedure used in this greenhouse test is as follows: Ray silt loam top soil containing about 0.05% by weight of krillium and sifted through a […] screen is fumigated about 5-10 days prior to use. Pots are then filled with said Ray silt loam soil to a level to allow for a 1 in. (2.54 cm) flooding depth. Rice plants (Bluebelle) of 2 to 3 weeks age are transplanted to the pots and bulbs or seeds of the test weeds also planted in the pots. The pots are then flooded and the test chemical applied to the surface of the flood water. The flood water is reduced to allow for germination of the Echinochloa crus-galli (barnyardgrass) seed and subsequently reflooded and maintained in that condition. Observations of percent inhibition using a scale of 0-100% are made about 3 weeks after transplant (WAT).
as §1

| SMILES | inhibition at 375 g/ha ([1]; 2 WAT) [%] | inhibition at 375 g/ha ([1]; 4 WAT) [%] | inhibition at 375 g/ha ([1]; 6 WAT) [%] | inhibition at 750 g/ha ([1]; 2 WAT) [%] | inhibition at 750 g/ha ([1]; 4 WAT) [%] | inhibition at 750 g/ha ([1]; 6 WAT) [%] | inhibition at 1500 g/ha ([1]; 2 WAT) [%] | inhibition at 1500 g/ha ([1]; 4 WAT) [%] | inhibition at 1500 g/ha ([1]; 6 WAT) [%] | inhibition at 3000 g/ha ([1]; 2 WAT) [%] | inhibition at 3000 g/ha ([1]; 4 WAT) [%] | inhibition at 3000 g/ha ([1]; 6 WAT) [%] | inhibition at 375 g/ha ([2]; 2 WAT) [%] | inhibition at 375 g/ha ([2]; 4 WAT) [%] | inhibition at 375 g/ha ([2]; 6 WAT) [%] | inhibition at 750 g/ha ([2]; 2 WAT) [%] | inhibition at 750 g/ha ([2]; 4 WAT) [%] | inhibition at 750 g/ha ([2]; 6 WAT) [%] | inhibition at 1500 g/ha ([2]; 2 WAT) [%] | inhibition at 1500 g/ha ([2]; 4 WAT) [%] | also measured |
| --- | --- | --- | --- | --- | --- | --- | --- | --- | --- | --- | --- | --- | --- | --- | --- | --- | --- | --- | --- | --- | --- |
| CCCCOCN(C(=O)CCl)c1c(C)cccc1C(C)(C)C [Compound C, 2'-methyl-6'-tert-butyl-N-(n-butoxymethyl)-2-chloroacetanilide] | 30 | 5 | 0 | 33 | 18 | 8 | 38 | 30 | 17 | 53 | 35 | 18 | 3 | 0 | 0 | 2 | 2 | 2 | 12 | 18 | injury rate in rice ([2]; 1.5 kg/ha (1.34 lb/A), after 4 WAT): greater than 15%; inhibition at 1500 g/ha ([2]; 6 WAT): 18%; inhibition at 3000 g/ha ([2]; 2 WAT): 22%; inhibition at 3000 g/ha ([2]; 4 WAT): 27%; inhibition at 3000 g/ha ([2]; 6 WAT): 30% |
| CCCCOCCN(C(=O)CCl)c1c(CC)cccc1CC [Compound B, 2',6'-diethyl-N-(n-butoxyethyl)-2-chloroacetanilide] | 27 | 10 | 5 | 27 | 15 | 7 | 62 | 12 | 7 | 32 | 30 | 13 | 7 | 3 | 7 | 3 | 2 | 3 | 10 | 3 | inhibition at 1500 g/ha ([2]; 6 WAT): 0%; inhibition at 3000 g/ha ([2]; 2 WAT): 7%; inhibition at 3000 g/ha ([2]; 4 WAT): 2%; inhibition at 3000 g/ha ([2]; 6 WAT): 3% |
| CCCOCCN(C(=O)CCl)c1c(CC)cccc1CC [Compound D, 2',6'-diethyl-N-(n-propoxyethyl)-2-chloroacetanilide] | 20 | 2 | 0 | 28 | 10 | 7 | 23 | 27 | 22 | 22 | 28 | 18 | 0 | 3 | 2 | 2 | 2 | 0 | 10 | 8 | inhibition at 1500 g/ha ([2]; 6 WAT): 7%; inhibition at 3000 g/ha ([2]; 2 WAT): 8%; inhibition at 3000 g/ha ([2]; 4 WAT): 7%; inhibition at 3000 g/ha ([2]; 6 WAT): 5% |
| CCCCOCN(C(=O)CCl)c1c(CC)cccc1CC [Compound A, 2',6'-diethyl-N-(n-butoxymethyl)-2-chloroacetanilide] | 37 | 22 | 7 | 52 | 20 | 15 | 60 | 33 | 20 | 42 | 33 | 12 | 8 | 10 | 7 | 2 | 0 | 0 | 8 | 23 | inhibition at 280 g/ha ([3]; 0.28 Kg/Ha): 50%; inhibition at 560 g/ha ([3]; 0.56 Kg/Ha): 100%; inhibition at 1120 g/ha ([3]; 1.12 Kg/Ha): 100%; inhibition at 2240 g/ha ([3]; 2.24 Kg/Ha): 100%; inhibition at 1500 g/ha ([2]; 6 WAT): 5%; inhibition at 3000 g/ha ([2]; 2 WAT): 10%; inhibition at 3000 g/ha ([2]; 4 WAT): 2%; inhibition at 3000 g/ha ([2]; 6 WAT): 3% |
